These are literature values, as cited in patent US12201111B2, “Glyphosate formulations containing amidoalkylamine surfactants” (Monsanto Technology LLC, priority 2016, dated 2025).

For this data set the following is noted: glyphosate in its acid form; 25° C.

`O=C(O)CNCP(=O)(O)O` [glyphosate, N-phosphonomethylglycine]: the solubility in water is 1.16 % by weight.
